From US11491120B2, “Pharmacological prophylactics against stress-induced affective disorders in females” (The Trustees of Columbia University in the City of New York, priority 2017, dated 2022)
Entries after “also recorded” stand apart in the source; their conditions may differ.

Key:
[1] = system: female 129S6/SvEv mice; assay: Forced swim test (FST), immobility time, after stress
[2] = system: female 129S6/SvEv mice; assay: Contextual fear conditioning (CFC), 3-shock, freezing in training and context re-exposure; settings: for Freezing during 3-shock CFC training vs saline: 1 week before CFC
[3] = 0.025 mg/kg, 1 week prophylactic drug
[4] = 0.075 mg/kg, 1 week prophylactic drug
[5] = 0.1 mg/kg, 1 week prophylactic drug
[6] = 0.3 mg/kg, 1 week prophylactic drug
[7] = 2.5 mg/kg, 1 week prophylactic drug
[8] = 10 mg/kg, 1 week prophylactic drug
[9] = Forced Swim Test Day 1, Dunnett test Sal vs. drug (0.025), 1 week prophylactic drug
[10] = Forced Swim Test Day 1, Dunnett test Sal vs. drug (0.075), 1 week prophylactic drug
[11] = Forced Swim Test Day 1, Dunnett test Sal vs. drug (0.1), 1 week prophylactic drug
[12] = Forced Swim Test Day 1, Dunnett test Sal vs. drug (0.3), 1 week prophylactic drug
[13] = Forced Swim Test Day 1, Dunnett test Sal vs. drug (2.5), 1 week prophylactic drug
[14] = Forced Swim Test Day 1, Dunnett test Sal vs. drug (10), 1 week prophylactic drug
[15] = single injection 1 week before stressor, female mice
[16] = Contextual Fear Conditioning Re-exposure, Dunnett test Sal vs. drug (0.025), 1 week prophylactic drug
[17] = Contextual Fear Conditioning Re-exposure, Dunnett test Sal vs. drug (0.075), 1 week prophylactic drug
[18] = Contextual Fear Conditioning Re-exposure, Dunnett test Sal vs. drug (0.1), 1 week prophylactic drug
[19] = Contextual Fear Conditioning Re-exposure, Dunnett test Sal vs. drug (0.3), 1 week prophylactic drug
[20] = Contextual Fear Conditioning Re-exposure, Dunnett test Sal vs. drug (2.5), 1 week prophylactic drug
[21] = Contextual Fear Conditioning Re-exposure, Dunnett test Sal vs. drug (10), 1 week prophylactic drug
[22] = Contextual Fear Conditioning Training, Dunnett test Sal vs. drug (0.025), 1 week prophylactic drug
[23] = Contextual Fear Conditioning Training, Dunnett test Sal vs. drug (0.075), 1 week prophylactic drug
[24] = Contextual Fear Conditioning Training, Dunnett test Sal vs. drug (0.1), 1 week prophylactic drug
[25] = Contextual Fear Conditioning Training, Dunnett test Sal vs. drug (0.3), 1 week prophylactic drug
[26] = Contextual Fear Conditioning Training, Dunnett test Sal vs. drug (2.5), 1 week prophylactic drug
[27] = Contextual Fear Conditioning Training, Dunnett test Sal vs. drug (10), 1 week prophylactic drug

## N[C@]1(c2ccccc2Cl)CCC[C@H](O)C1=O [(2S,6S)-HNK]
[1]; [3]
  p, Sal vs. drug, Dunnett test: Immobility Time (min 1), Forced Swim Test Day 2: 0.9954
  p, Sal vs. drug, Dunnett test: Immobility Time (min 1-6), Forced Swim Test Day 2: 0.9996
  p, Sal vs. drug, Dunnett test: Immobility Time (min 2), Forced Swim Test Day 2: 0.9993
  p, Sal vs. drug, Dunnett test: Immobility Time (min 4), Forced Swim Test Day 2: 0.9518
  p, Sal vs. drug, Dunnett test: Immobility Time (min 5), Forced Swim Test Day 2: 0.9885
  p, Sal vs. drug, Dunnett test: Immobility Time (min 6), Forced Swim Test Day 2: >0.9999
  p, Sal vs. drug, Dunnett test: Immobility Time Average (min 3-6), Forced Swim Test Day 2: 0.9999
[1]; [4]
  * (significance), Sal vs. drug, Dunnett test: Immobility Time (min 1-6), Forced Swim Test Day 2: ** (** p<0.01)
  * (significance), Sal vs. drug, Dunnett test: Immobility Time (min 5), Forced Swim Test Day 2: *** (*** p<0.0001)
  * (significance), Sal vs. drug, Dunnett test: Immobility Time (min 6), Forced Swim Test Day 2: ** (** p<0.01)
  p, Sal vs. drug, Dunnett test: Immobility Time (min 1), Forced Swim Test Day 2: 0.9993
  p, Sal vs. drug, Dunnett test: Immobility Time (min 1-6), Forced Swim Test Day 2: 0.0025
  p, Sal vs. drug, Dunnett test: Immobility Time (min 2), Forced Swim Test Day 2: 0.9998
  p, Sal vs. drug, Dunnett test: Immobility Time (min 4), Forced Swim Test Day 2: 0.3169
  p, Sal vs. drug, Dunnett test: Immobility Time (min 5), Forced Swim Test Day 2: <0.0001
  p, Sal vs. drug, Dunnett test: Immobility Time (min 6), Forced Swim Test Day 2: 0.0013
  p, Sal vs. drug, Dunnett test: Immobility Time Average (min 3-6), Forced Swim Test Day 2: 0.9990
[1]; [5]
  * (significance), Sal vs. drug, Dunnett test: Immobility Time (min 1), Forced Swim Test Day 2: * (* p<0.05)
  p, Sal vs. drug, Dunnett test: Immobility Time (min 1), Forced Swim Test Day 2: 0.0291
  p, Sal vs. drug, Dunnett test: Immobility Time (min 1-6), Forced Swim Test Day 2: 0.2191
  p, Sal vs. drug, Dunnett test: Immobility Time (min 2), Forced Swim Test Day 2: 0.4741
  p, Sal vs. drug, Dunnett test: Immobility Time (min 4), Forced Swim Test Day 2: 0.9995
  p, Sal vs. drug, Dunnett test: Immobility Time (min 5), Forced Swim Test Day 2: 0.9990
  p, Sal vs. drug, Dunnett test: Immobility Time (min 6), Forced Swim Test Day 2: 0.9952
  p, Sal vs. drug, Dunnett test: Immobility Time Average (min 3-6), Forced Swim Test Day 2: 0.9623
[1]; [6]
  p, Sal vs. drug, Dunnett test: Immobility Time (min 1), Forced Swim Test Day 2: 0.2627
  p, Sal vs. drug, Dunnett test: Immobility Time (min 1-6), Forced Swim Test Day 2: 0.9993
  p, Sal vs. drug, Dunnett test: Immobility Time (min 2), Forced Swim Test Day 2: 0.7509
  p, Sal vs. drug, Dunnett test: Immobility Time (min 4), Forced Swim Test Day 2: 0.9997
  p, Sal vs. drug, Dunnett test: Immobility Time (min 5), Forced Swim Test Day 2: 0.9882
  p, Sal vs. drug, Dunnett test: Immobility Time (min 6), Forced Swim Test Day 2: 0.4546
  p, Sal vs. drug, Dunnett test: Immobility Time Average (min 3-6), Forced Swim Test Day 2: 0.9999
[1]; [7]
  p, Sal vs. drug, Dunnett test: Immobility Time (min 1), Forced Swim Test Day 2: 0.9998
  p, Sal vs. drug, Dunnett test: Immobility Time (min 1-6), Forced Swim Test Day 2: 0.5400
  p, Sal vs. drug, Dunnett test: Immobility Time (min 2), Forced Swim Test Day 2: >0.9999
  p, Sal vs. drug, Dunnett test: Immobility Time (min 4), Forced Swim Test Day 2: 0.8764
  p, Sal vs. drug, Dunnett test: Immobility Time (min 5), Forced Swim Test Day 2: 0.6601
  p, Sal vs. drug, Dunnett test: Immobility Time (min 6), Forced Swim Test Day 2: 0.9992
  p, Sal vs. drug, Dunnett test: Immobility Time Average (min 3-6), Forced Swim Test Day 2: 0.9957
[1]; [8]
  p, Sal vs. drug, Dunnett test: Immobility Time (min 1), Forced Swim Test Day 2: 0.6616
  p, Sal vs. drug, Dunnett test: Immobility Time (min 1-6), Forced Swim Test Day 2: >0.9999
  p, Sal vs. drug, Dunnett test: Immobility Time (min 2), Forced Swim Test Day 2: 0.9991
  p, Sal vs. drug, Dunnett test: Immobility Time (min 4), Forced Swim Test Day 2: 0.9999
  p, Sal vs. drug, Dunnett test: Immobility Time (min 5), Forced Swim Test Day 2: 0.9877
  p, Sal vs. drug, Dunnett test: Immobility Time (min 6), Forced Swim Test Day 2: 0.9994
  p, Sal vs. drug, Dunnett test: Immobility Time Average (min 3-6), Forced Swim Test Day 2: 0.9999
[1]; [9]
  * (significance), Immobility Time (min 1): ** (** p<0.01)
  p, Immobility Time (min 1): 0.0031
  p, Immobility Time (min 1-6): 0.8484
  p, Immobility Time (min 3): 0.9997
  p, Immobility Time (min 4): >0.9999
  p, Immobility Time (min 5): >0.9999
  p, Immobility Time (min 6): 0.9993
  p, Immobility Time Average (min 3-6): 0.9997
[1]; [10]
  p, Immobility Time (min 1): 0.0820
  p, Immobility Time (min 1-6): 0.0650
  p, Immobility Time (min 3): 0.9489
  p, Immobility Time (min 4): 0.9482
  p, Immobility Time (min 5): 0.9436
  p, Immobility Time (min 6): 0.6982
  p, Immobility Time Average (min 3-6): 0.7901
[1]; [11]
  * (significance), Immobility Time (min 1): *** (*** p<0.0001)
  p, Immobility Time (min 1): <0.0001
  p, Immobility Time (min 1-6): 0.5664
  p, Immobility Time (min 3): 0.9993
  p, Immobility Time (min 4): 0.9993
  p, Immobility Time (min 5): 0.9869
  p, Immobility Time (min 6): >0.9999
  p, Immobility Time Average (min 3-6): 0.9992
[1]; [12]
  * (significance), Immobility Time (min 1): * (* p<0.05)
  * (significance), Immobility Time (min 1-6): * (* p<0.05)
  p, Immobility Time (min 1): 0.0277
  p, Immobility Time (min 1-6): 0.0361
  p, Immobility Time (min 3): 0.4573
  p, Immobility Time (min 4): 0.8163
  p, Immobility Time (min 5): 0.9482
  p, Immobility Time (min 6): 0.6194
  p, Immobility Time Average (min 3-6): 0.5532
[1]; [13]
  * (significance), Immobility Time (min 1): * (* p<0.05)
  p, Immobility Time (min 1): 0.0147
  p, Immobility Time (min 1-6): 0.9878
  p, Immobility Time (min 3): 0.9995
  p, Immobility Time (min 4): 0.9958
  p, Immobility Time (min 5): 0.9958
  p, Immobility Time (min 6): 0.9992
  p, Immobility Time Average (min 3-6): 0.9990
[1]; [14]
  * (significance), Immobility Time (min 1): ** (** p<0.01)
  p, Immobility Time (min 1): 0.0064
  p, Immobility Time (min 1-6): >0.9999
  p, Immobility Time (min 3): 0.9307
  p, Immobility Time (min 4): 0.9497
  p, Immobility Time (min 5): 0.9952
  p, Immobility Time (min 6): 0.5393
  p, Immobility Time Average (min 3-6): 0.8035
[1]; all doses of (2S,6S)-HNK and all other dose groups, 1 week before CFC, female mice
  Immobility on FST Day 2 vs saline: failed to reduce average immobility
[1]; [15]
  Prophylactic efficacy against stress-induced depressive-like behavior: but not (2S,6S)-HNK
[2]; [3]
  p, Sal vs. drug, Dunnett test: Freezing (Average), Contextual Fear Conditioning Re-exposure: 0.9898
[2]; [4]
  p, Sal vs. drug, Dunnett test: Freezing (Average), Contextual Fear Conditioning Re-exposure: 0.4829
[2]; 0.1 mg/kg, female mice
  Freezing during 3-shock CFC training vs saline: froze significantly less
[2]; [5]
  p, Sal vs. drug, Dunnett test: Freezing (Average), Contextual Fear Conditioning Re-exposure: 0.9999
[2]; 0.3 mg/kg, female mice
  Freezing during 3-shock CFC training vs saline: froze significantly more
[2]; [6]
  p, Sal vs. drug, Dunnett test: Freezing (Average), Contextual Fear Conditioning Re-exposure: 0.1973
[2]; [7]
  p, Sal vs. drug, Dunnett test: Freezing (Average), Contextual Fear Conditioning Re-exposure: 0.9996
[2]; [8]
  p, Sal vs. drug, Dunnett test: Freezing (Average), Contextual Fear Conditioning Re-exposure: 0.9896
[2]; [16]
  p, Freezing (min 1-5): 0.9898
  p, Freezing (min 2): >0.9999
  p, Freezing (min 3): 0.7775
  p, Freezing (min 4): 0.9990
  p, Freezing (min 5): 0.9996
[2]; [17]
  p, Freezing (min 1-5): 0.4829
  p, Freezing (min 2): 0.9135
  p, Freezing (min 3): 0.3091
  p, Freezing (min 4): 0.5808
  p, Freezing (min 5): 0.2703
[2]; [18]
  p, Freezing (min 1-5): 0.9999
  p, Freezing (min 2): 0.9997
  p, Freezing (min 3): 0.9998
  p, Freezing (min 4): 0.9889
  p, Freezing (min 5): >0.9999
[2]; [19]
  p, Freezing (min 1-5): 0.1973
  p, Freezing (min 2): 0.2064
  p, Freezing (min 3): 0.2280
  p, Freezing (min 4): 0.8082
  p, Freezing (min 5): 0.3262
[2]; [20]
  p, Freezing (min 1-5): 0.9996
  p, Freezing (min 2): 0.9991
  p, Freezing (min 3): 0.9908
  p, Freezing (min 4): 0.9997
  p, Freezing (min 5): >0.9999
[2]; [21]
  p, Freezing (min 1-5): 0.9896
  p, Freezing (min 2): 0.5764
  p, Freezing (min 3): 0.9993
  p, Freezing (min 4): 0.9991
  p, Freezing (min 5): >0.9999
[2]; [22]
  p, Freezing (min 1-5): 0.9955
  p, Freezing (min 4): 0.7894
  p, Freezing (min 5): >0.9999
[2]; [23]
  p, Freezing (min 1-5): 0.9996
  p, Freezing (min 4): 0.9991
  p, Freezing (min 5): >0.9999
[2]; [24]
  p, Freezing (min 1-5): 0.2466
  p, Freezing (min 4): 0.3064
  p, Freezing (min 5): 0.5117
[2]; [25]
  * (significance), Freezing (min 1-5): ** (** p<0.01)
  p, Freezing (min 1-5): 0.0085
  p, Freezing (min 4): 0.0675
  p, Freezing (min 5): 0.0731
[2]; [26]
  p, Freezing (min 1-5): 0.6733
  p, Freezing (min 4): 0.9438
  p, Freezing (min 5): 0.7492
[2]; [27]
  p, Freezing (min 1-5): 0.5049
  p, Freezing (min 4): 0.7737
  p, Freezing (min 5): 0.5845
[2]; single i.p. injection 1 week before 3-shock CFC, all doses, female mice
  Freezing during re-exposure to the CFC training context vs saline: do not significantly alter freezing; also recorded: did not alter overall freezing
[2]; [15]
  Attenuation of learned fear: do not attenuate learned fear
